The source of these data is patent publication US9676796B2, “Tricyclic benzoxaborole compound, preparation method and use thereof” (DONG-A ST CO., LTD., priority 2013, dated 2017).

What is called ED50 is the dose at which the effect has come halfway, by size or by number of responders. By MIC is commonly meant the smallest concentration in the dilution series that meets the test's criterion for growth inhibition. A lower MIC goes with inhibition by little substance.

Values after ≈ are worked out from the molar mass of the structure shown. A value given as a limit tells only on which side of the number the result lay.

For test [1], the system named is Carbapenem-resistant Acinetobacter baumannii BAA-1605. As to the kind of experiment: Antibacterial activity in animal infection model (mouse systemic infection). The settings on record: for ED50: Acinetobacter baumannii, BAA1605, read-out: ED50 (dose needed for the 50 percentage survival rate); for ED50 times as low as ED50 value of Compound C: mouse systemic infection, A. baumannii BAA-1605, oral. The format is in vivo. On the procedure: Antibacterial activity of the compounds from the present invention was examined in vivo according to the method described in S. Choi et al (Antimicrob. Agents Chemother 56 (9) 4713-4717. 2012).
Carbapenem-resistant Acinetobacter baumannii BAA-1605 was used as test strain and the test strain was intraperitoneally injected into mouse to cause the systemic infection. After 1 hour of infection, the compounds of EXAMPLEs 1, 2, 3, 5 and the control compounds were administrated orally to the mice.

The subject of another test is E. aerogenes. The experiment in a line: Antibacterial activity in vitro, agar plate dilution MIC. The format is cell-based, Enterobacter aerogenes. The following applies: Klebsiella aerogenes; clinical isolate, Mueller-Hinton agar dilution. On the procedure:
(§1) The antibacterial activity of the novel derivatives prepared by EXAMPLE 1 to 5 was evaluated in vitro by agar plate dilution method using Mueller-Hinton agar according to the NCCLS (National Committee for Clinical Laboratory Standards. 2000. Methods for dilution antimicrobial susceptibility tests for bacteria that grow aerobically. Approved standard, NCCLS document M7-A5, 5th ed, vol 20, no. 2. National Committee for Clinical Laboratory Standards, Wayne, Pa.). The test strains were clinical isolates from patients in general hospital in Korea from 2010 to 2013. The antibacterial activity was examined against important gram-negative bacteria including carbapenem-resistant Acinetobacter baumannii (A. baumannii), carbapenem-resistant Pseudomonas aeruginosa (P. aeruginosa), Escherichia coli (E. coli), and Klebsiella pneumonia (K. pneumonia) and was expressed as minimum inhibitory concentrations (MIC, μg/ml) in table 1.
(§2) The antibacterial activity of compounds (in Preparation Examples 1 to 4) and meropenem (MEPM, carbapenem-based antibiotics) were examined according to the same method shown as EXPERIMENTAL EXAMPLE 1.
(In general: In agar dilution, organisms are placed on agar that contains the substance at set levels.)

The next test relates to P. mirabilis. The description is as above. The following applies: Proteus mirabilis; clinical isolate, Mueller-Hinton agar dilution. The format is cell-based. How it is done:
as §1, §2

Test [2] has as its system carbapenem-resistant Acinetobacter baumannii (A. baumannii). Described as above. Format: cell-based. The settings on record: carbapenem-resistant clinical isolate, Mueller-Hinton agar dilution. On the procedure:
as §1, §2

A further test deals with P. vulgaris. Described as above. The format is cell-based. The following applies: Proteus vulgaris; clinical isolate, Mueller-Hinton agar dilution. On the procedure:
as §1, §2

Test [3] has as its system Escherichia coli (E. coli). The description is as above. Format: cell-based. The following applies: clinical isolate, Mueller-Hinton agar dilution. How it is done: as §1, §2
In another test the test system is K. oxytoca. Described as above. Format: cell-based. The settings on record: Klebsiella oxytoca; clinical isolate, Mueller-Hinton agar dilution. How it is done: as §1, §2
The test system of test [4] is carbapenem-resistant Pseudomonas aeruginosa (P. aeruginosa). The test is described as above. Format: cell-based. The following applies: carbapenem-resistant clinical isolate, Mueller-Hinton agar dilution. On the procedure:
as §1, §2

Another test relates to C. freundii. The test is described as above. The following applies: Citrobacter freundii; clinical isolate, Mueller-Hinton agar dilution. Format: cell-based. How it is done:
as §1, §2

Test [5] has as its system Klebsiella pneumoniae (K. pneumoniae). Described as above. Format: cell-based. The settings on record: clinical isolate, Mueller-Hinton agar dilution. How it is done: as §1, §2
The next test concerns E. cloacae. Described as above. The format is cell-based. The following applies: Enterobacter cloacae; clinical isolate, Mueller-Hinton agar dilution. How it is done: as §1, §2
A further test has as its system M. morganii. The description is as above. Format: cell-based. The settings on record: Morganella morganii; clinical isolate, Mueller-Hinton agar dilution. How it is done: as §1, §2
For a further test, the system named is N. gonorrhoeae. Described as above. Format: cell-based. The settings on record: Neisseria gonorrhoeae; clinical isolate, Mueller-Hinton agar dilution.
A further test relates to S. marcescens. The test is described as above. Format: cell-based. The settings on record: Serratia marcescens; clinical isolate, Mueller-Hinton agar dilution. On the procedure:
as §1

`Cl.NCC1OB2OCCOc3cccc1c32` (centres unmarked) [Compound A, (7,8-dihydro-2H-1,6,9-trioxa-9a-borabenzo[cd]azulen-2-yl)methanamine, reference compound]: the ED50 in test [1] is > 20 mg/kg. For the same molecule, the minimum inhibitory concentration (MIC) was 2 mg/L against E. aerogenes; 8 mg/L with P. mirabilis; > 128 mg/L in test [2]; 32 mg/L in the test with P. vulgaris; 2 mg/L in [3]; 2 mg/L against K. oxytoca. Also, the MIC in [4] was 8 mg/L; in the test with C. freundii, 1 mg/L; in test [5] it was 4 mg/L; in the test on E. cloacae it was 2 mg/L; with M. morganii, 2 mg/L.

For the molecule `CC1COc2cccc3c2B(O1)OC3CN.Cl` (centres unmarked) [Compound B, (8-methyl-7,8-dihydro-2H-1,6,9-trioxa-9a-borabenzo[cd]azulen-2-yl)methanamine hydrochloride, reference compound], the ED50 in test [1] was > 20 mg/kg. Further, the minimum inhibitory concentration (MIC) in the test with E. aerogenes worked out at 2 mg/L; with P. mirabilis, 8 mg/L; in [2], 8 mg/L; in the test with P. vulgaris, 16 mg/L; in test [3] it was 2 mg/L; with K. oxytoca, 2 mg/L. Moreover, the MIC in test [4] was 64 mg/L; in the test on C. freundii it was 1 mg/L; in [5] it was 4 mg/L; in the test on E. cloacae, 2 mg/L; in the test on M. morganii, 4 mg/L.

For the molecule `Cl.NC[C@H]1OB2O[C@H](CO)COc3cccc1c32` [Compound C, ((2S,8R)-2-(aminomethyl)-7,8-dihydro-2H-1,6,9-trioxa-9a-borabenzo[cd]azulen-8-yl)methanol hydrochloride, reference compound], the ED50 in [1] was found to be 9.07 mg/kg. In addition, the MIC against E. aerogenes was found to be 4 mg/L; in the test on P. mirabilis it was 8 mg/L; in test [2] it was 4 mg/L; in the test on P. vulgaris it was 8 mg/L; in [3], 2 mg/L; with K. oxytoca, 2 mg/L. Further, the MIC was determined as 8 mg/L in test [4]; 2 mg/L with C. freundii; 2 mg/L in test [5]; 2 mg/L with E. cloacae; 2 mg/L against M. morganii.

As for `CC1COB2OC(CN)c3cccc(c32)O1.Cl` (centres unmarked) [EXAMPLE 1, (7-methyl-7,8-dihydro-2H-1,6,9-trioxa-9a-borabenzo[cd]azulen-2-yl)methanamine hydrochloride], the ED50 in [1] is 1.75 mg/kg. Moreover, the “ED50 times as low as ED50 value of Compound C” value (from here on “ED50 times as low as ED50 value”) in [1] was 5.18 times. Further, the MIC against E. aerogenes turned out to be 4 mg/L; with N. gonorrhoeae, 2 mg/L; against P. mirabilis, 2 mg/L; in test [2], 4 mg/L; in the test with P. vulgaris it was 4 mg/L; in test [3], 2 mg/L. Besides, the minimum inhibitory concentration (MIC) amounted to 2 mg/L in the test on K. oxytoca; 32 mg/L in test [4]; 1 mg/L in the test with C. freundii; 2 mg/L in test [5]; 2 mg/L in the test with E. cloacae; 2 mg/L with M. morganii. The molecule further registered an MIC in the test on S. marcescens of 4 mg/L.

Consider `CC1COB2O[C@H](CN)c3cccc(c32)O1.Cl` (stereo partly drawn) [EXAMPLE 2, ((2S)-7-methyl-7,8-dihydro-2H-1,6,9-trioxa-9a-borabenzo[cd]azulen-2-yl)methanamine hydrochloride], for which, in test [1], the ED50 was 1.36 mg/kg. Moreover, in test [1], the “ED50 times as low as ED50 value” value is reported as 6.69 times. The minimum inhibitory concentration (MIC) amounted to 2 mg/L with E. aerogenes; 1 mg/L with N. gonorrhoeae; 2 mg/L in the test with P. mirabilis; 2 mg/L in test [2]; 2 mg/L in the test on P. vulgaris; 1 mg/L in [3]. Moreover, the MIC is 2 mg/L against K. oxytoca; 8 mg/L in [4]; 1 mg/L against C. freundii; 2 mg/L in test [5]; 1 mg/L in the test on E. cloacae; 1 mg/L in the test on M. morganii. Also, it took 4 mg/L to inhibit growth against S. marcescens (MIC).

As to `C[C@@H]1COB2O[C@H](CN)c3cccc(c32)O1.Cl` [EXAMPLE 3, ((2S,7R)-7-methyl-7,8-dihydro-2H-1,6,9-trioxa-9a-borabenzo[cd]azulen-2-yl)methanamine hydrochloride], in test [1], the ED50 was found to be 0.909 mg/kg. Moreover, in test [1], the “ED50 times as low as ED50 value” value amounted to 9.98 times. Also, the MIC against E. aerogenes was determined as 2 mg/L; against N. gonorrhoeae, 0.5 mg/L; against P. mirabilis it was 2 mg/L; in test [2], 1 mg/L; against P. vulgaris, 2 mg/L; in [3], 1 mg/L. Further, the MIC in the test on K. oxytoca is 1 mg/L; in test [4] it was 16 mg/L; with C. freundii, 1 mg/L; in [5], 2 mg/L; with E. cloacae, 1 mg/L; against M. morganii, 1 mg/L. This molecule also returned an MIC against S. marcescens of 4 mg/L.

Consider `C[C@H]1COB2O[C@H](CN)c3cccc(c32)O1.Cl` [EXAMPLE 5, ((2S, 7S)-7-methyl-7,8-dihydro-2H-1,6,9-trioxa-9a-borabenzo[cd]azulen-2-yl)methanamine hydrochloride], for which the 50% effective dose (ED50) in test [1] stood at 1.36 mg/kg. In addition, the “ED50 times as low as ED50 value” value in test [1] is 6.69 times. Besides, the minimal inhibitory concentration (MIC) in the test on E. aerogenes was found to be 4 mg/L; in the test with N. gonorrhoeae, 2 mg/L; with P. mirabilis, 2 mg/L; in test [2], 4 mg/L; against P. vulgaris, 2 mg/L; in test [3], 1 mg/L. For the same molecule, the MIC in the test on K. oxytoca was determined as 2 mg/L; in test [4], 8 mg/L; against C. freundii it was 1 mg/L; in test [5], 2 mg/L; in the test with E. cloacae, 1 mg/L; against M. morganii, 0.5 mg/L. Moreover, the MIC in the test on S. marcescens turned out to be 4 mg/L.

On to `C[C@@H](O)[C@H]1C(=O)N2C(C(=O)O)=C(S[C@@H]3CN[C@H](C(=O)N(C)C)C3)[C@H](C)[C@H]12` [MEPM, meropenem, reference compound], for which the MIC in the test on E. aerogenes is < 0.0313 mg/L; against P. mirabilis it was 0.0625 mg/L (≈ 0.163 µM); in test [2], 32 mg/L (≈ 83.4 µM); in the test with P. vulgaris, 0.0625 mg/L (≈ 0.163 µM); in test [3] it was < 0.0313 mg/L; with K. oxytoca it was < 0.0313 mg/L. The MIC in [4] was 32 mg/L (≈ 83.4 µM); against C. freundii it was < 0.0313 mg/L; in [5], < 0.0313 mg/L; against E. cloacae, < 0.0313 mg/L; with M. morganii, 0.125 mg/L (≈ 0.326 µM).

As for `C[C@@H]1COB2O[C@H](CN)c3cccc(c32)O1` [compound 4, ((2S,7R)-7-methyl-7,8-dihydro-2H-1,6,9-trioxa-9a-borabenzo[cd]azulen-2-yl) methanamine], the MIC with E. aerogenes turned out to be 1 mg/L (≈ 4.57 µM); against N. gonorrhoeae, 0.5 mg/L (≈ 2.28 µM); against P. mirabilis, 1 mg/L (≈ 4.57 µM); in [2], 1 mg/L (≈ 4.57 µM); against P. vulgaris, 1 mg/L (≈ 4.57 µM); in test [3], 1 mg/L (≈ 4.57 µM). For the same molecule, the minimal inhibitory concentration (MIC) in the test on K. oxytoca came out at 1 mg/L (≈ 4.57 µM); in test [4], 8 mg/L (≈ 36.5 µM); with C. freundii, 0.5 mg/L (≈ 2.28 µM); in test [5] it was 1 mg/L (≈ 4.57 µM); against E. cloacae it was 1 mg/L (≈ 4.57 µM); in the test on M. morganii, 0.5 mg/L (≈ 2.28 µM). The same molecule had an MIC in the test with S. marcescens of 2 mg/L (≈ 9.13 µM).

Take `Cl.NCC1OB2OCC(CO)Oc3cccc1c32` (centres unmarked) [compound D, (2-(aminomethyl)-7,8-dihydro-2H-1,6,9-trioxa-9a-borabenzo[cd]azulen-7-yl)methanol hydrochloride, reference compound]: the MIC against E. aerogenes was found to be 8 mg/L; in the test with P. mirabilis, 16 mg/L; in test [2] it was 16 mg/L; with P. vulgaris, 16 mg/L; in test [3], 8 mg/L; against K. oxytoca, 8 mg/L. Further, the MIC in test [4] came to 64 mg/L; in the test with C. freundii, 4 mg/L; in test [5] it was 16 mg/L; against E. cloacae it was 8 mg/L; in the test on M. morganii it was 8 mg/L.
